Measurements reported in patent publication US10815312B2, “Bifunctional peptide having capability to permeate cells and capability to regenerate muscles and use thereof” (Seoul National University R&DB Foundation, priority 2018, dated 2020).

Key:
intracellular HDAC5 = biological target: T1, intracellular HDAC5 (Mus musculus, UniProt Q9Z2V6); test: Binding ability to intracellular HDAC5 by immunoprecipitation; conditions: C2C12 cells treated for 2 hours, immunoprecipitation with HDAC5 antibody, western blotting with FITC antibody (FIG. 2)
T1 construct: endogenous in cells; host or cells: C2C12 muscle precursor cells
T1 sequence (Q9Z2V6 whole entry): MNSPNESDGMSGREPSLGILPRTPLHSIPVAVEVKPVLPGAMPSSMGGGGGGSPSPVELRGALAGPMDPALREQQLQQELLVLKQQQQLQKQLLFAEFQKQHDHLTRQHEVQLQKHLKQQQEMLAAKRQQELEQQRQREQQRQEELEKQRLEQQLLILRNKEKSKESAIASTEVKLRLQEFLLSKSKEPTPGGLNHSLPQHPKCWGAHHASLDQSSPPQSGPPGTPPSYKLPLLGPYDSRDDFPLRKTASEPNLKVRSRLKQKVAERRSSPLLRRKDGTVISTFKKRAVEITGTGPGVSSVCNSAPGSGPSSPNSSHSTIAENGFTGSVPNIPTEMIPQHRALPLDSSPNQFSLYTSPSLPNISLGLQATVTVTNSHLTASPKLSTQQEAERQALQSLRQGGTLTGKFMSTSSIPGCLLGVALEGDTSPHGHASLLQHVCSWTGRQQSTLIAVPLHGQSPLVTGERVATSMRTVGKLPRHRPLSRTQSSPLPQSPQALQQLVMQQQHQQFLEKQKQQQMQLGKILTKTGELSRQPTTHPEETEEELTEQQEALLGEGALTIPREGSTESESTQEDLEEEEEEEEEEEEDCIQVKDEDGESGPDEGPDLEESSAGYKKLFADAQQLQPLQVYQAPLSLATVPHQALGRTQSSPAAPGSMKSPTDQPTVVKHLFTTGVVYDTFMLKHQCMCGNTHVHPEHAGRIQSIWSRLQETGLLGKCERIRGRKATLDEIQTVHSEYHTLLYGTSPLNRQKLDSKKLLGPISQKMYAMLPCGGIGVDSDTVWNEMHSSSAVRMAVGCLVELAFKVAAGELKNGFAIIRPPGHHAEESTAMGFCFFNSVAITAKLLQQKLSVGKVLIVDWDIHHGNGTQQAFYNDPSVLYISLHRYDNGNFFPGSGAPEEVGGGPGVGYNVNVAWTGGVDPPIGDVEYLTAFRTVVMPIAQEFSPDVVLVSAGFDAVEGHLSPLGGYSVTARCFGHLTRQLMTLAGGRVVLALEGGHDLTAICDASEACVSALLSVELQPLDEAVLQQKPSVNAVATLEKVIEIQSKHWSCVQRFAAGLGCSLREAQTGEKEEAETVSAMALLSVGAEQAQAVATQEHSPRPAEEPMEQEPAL
Description: Muscle precursor cells (C2C12) were transplanted at a density of 1.5×10^6/well in a 10 pi dish and cultured in EMEM (Eagle's Minimal Essential Medium, ATCC). The medium was replaced at 24-hour intervals until confluency of cells reached 50%. When the confluency was 50%, the medium was replaced with Essential 8 medium, and the cells were treated with the peptide of SEQ ID NO: 1 for 2 hours. Then, the binding ability to intracellular HDAC5 was identified by immunoprecipitation. The lysate harvested with RIPA buffer containing a protease inhibitor was quantified through a BCA assay. Each sample quantified with a minimum volume of 500 μl at a concentration of 1 μg/ml was collected in a microtube, 2 μg of HDAC5 first antibody was added thereto, and the mixture was reacted under rotation for 16 hours at 4° C. in a refrigerated state. 20 μl of protein A/G agarose beads were added and reacted at 4° C. for 3 hours. Then, the beads were centrifuged, washed three times with DPBS and heated at 85° C. for 5 minutes in a 2× sample buffer, and only the supernatant was obtained, followed by western blotting and identification using an FITC antibody.

mesenchymal stem cells = test: Differentiation of stem cells into myocytes, gene expression of muscle differentiation markers by real-time RT-PCR; assay type: cell-based; conditions: 100 μM peptide, muscle differentiation medium, real-time RT-PCR (FIG. 3)
Description: 3×10^6 mesenchymal stem cells were cultured in a bacterial culture dish for 3 days to form spheroids. The medium used was low-glucose DMEM with 10% FBS and 1% P/S. After 3 days, the supernatant was removed and only the spheroids were collected and seeded in a cell culture dish coated with 10 ug/ml of collagen type I for 4 days. The medium used was DMEM/F12 with 1 ng/ml TGFb (transforming growth factor beta), 1×NEAA (nonessential amino acids) and 1×ITS (insulin-transferrin selenium). After 4 days, the medium was changed to low-glucose DMEM with 2% FBS and 10 ng/ml IGF-1 (insulin growth factor-1), differentiation was further induced for 2 weeks, and muscle differentiation markers were identified. The cells were treated with 100 μM of the group not treated with peptide using only a muscle differentiation medium (NT), 100 μM of the groups treated with the peptides of SEQ ID NOS: 1 to 8 and 100 μM of the control peptide (SEQ ID NO: 9) in order to determine the efficiency of expression of the muscle differentiation markers by the peptides. The levels of gene expression of dystrophin and myogenin, as muscle differentiation markers, were measured through real-time RT-PCR. The base sequences of the PCR primers used for amplification of respective genes are as follows.

Sequence	binding to intracellular HDAC5 (intracellular HDAC5)	gene expression of dystrophin (mesenchymal stem cells)	gene expression of myogenin (mesenchymal stem cells)
GKCSTRGRKCCRRKK [SEQ ID NO: 1]	binds to intracellular HDAC5	–	–
GLRSKSKKFRRPDIQYPDA (Control peptide C1) [SEQ ID NO: 9]	–	did not exhibit an increase in gene expression	did not exhibit an increase in gene expression
